Where two headings read alike, the source gives them in different places.
Assays:
[1] = cited from earlier work
clinical = experiment: clinical
Procedure: (§1) This study was an open‐label, fixed sequence, 2‐way crossover study in 13 healthy participants. On Day 1, 25 mg amitriptyline and 50 mg tramadol were orally administered concurrently, followed by a wash‐out period of at least 7 days. On Day 8, 30 mg of oral CBD oil was administered 1 h prior to amitriptyline and tramadol. On Days 1 and 8, participants presented to the clinical research unit in the morning and were discharged in the evening, briefly returning in the morning of Days 2 and 9 for pharmacokinetic sampling.
To establish whether significant treatment effects could be detected, the PK parameters were compared with a mixed effects model analysis of variance (ANOVA) with treatment as a fixed factor and participants as a random factor on log‐transformed data. The general treatment effect and specific contrasts were reported with the estimated difference and the 95% confidence interval, the least square mean estimates and the p‐value. All calculations were performed using SAS for Windows V9.4 (SAS Institute, Inc., Cary, NC, USA).

[2] = cited from earlier work; for mean (SD) AUC: previous trial
[3] = Plasma pharmacokinetics (non-compartmental analysis) in open-label, fixed-sequence, 2-way crossover study in healthy participants; details: for Clast, Geometric mean / Clast, Mean / Clast, Median / tlag, Median / tmax, Median / AUC(0-t) / Cmax / AUClast, Geometric mean / AUClast, Mean / AUClast, Median / Cmax, Geometric mean / Cmax, Mean / Cmax, Median: fasted, plasma; for AUC(0-t) / Cmax: po; for AUC(0-t): AUClast
Procedure: as §1
The cannabidiol formulation used in this study was Clinican®, an almond oil‐based formulation containing 10% cannabidiol and manufactured by Clinical Cannabis Care (Breukelen, the Netherlands) and administered orally with 240 mL of water following an overnight fast. Single doses of 30 mg CBD were administered. […] Furthermore, we estimated that the 30 mg CBD dose is at the upper end of the range of CBD intake of patients who use CBD‐rich varieties of medicinal cannabis (or formulations containing THC and CBD, like Sativex®) for treatment of neuropathic pain symptoms,[23] and as well as an approximately median dose for OTC CBD users. Cannabidiol was administered one hour prior to amitriptyline and tramadol (during visit 2 only) to offset the slower absorption expected from an oil‐based cannabinoid formulation, compared to the victim drugs.
Generic oral formulations of tramadol (50 mg tramadol hydrochloride capsule) and amitriptyline (25 mg hydrochloride tablet) were used in this study. These doses were at the low end of the therapeutic range, allowing for a safety margin for possible increases in plasma concentrations when co‐administered with CBD. Tramadol and amitriptyline were not known to induce or inhibit CYP‐enzymes in general, and no specific pharmacokinetic interactions between the two victim drugs were known to the investigators. […] However, this risk was deemed clinically irrelevant when low, single doses were administered to healthy volunteers. Based on these consideration regarding pharmacokinetics and safety, the two victim drugs were administered together in a cocktail design.
Sampling for pharmacokinetics was performed pre‐dose and at 1, 2, 3, 4, 5, 6, 8, 12 and 24 h following the administration of amitriptyline and tramadol. Approximately 4 mL blood was collected via an i.v. catheter placed in an antecubital vein in the arm in polypropylene K2EDTA tubes. Following collection, samples were immediately cooled on ice. Within 30 min of collection, plasma was separated by centrifugation at approximately 2000 g for 10 min and promptly transferred into amber glass vials and stored at […]. The samples were analysed by the iC42 Laboratory (Department of Anesthesiology, University of Colorado, Aurora, Colorado, USA). CBD and CBD metabolites were analysed using a validated assay that was previously published (CBD metabolite concentrations not reported in this manuscript).[33] Concentrations of amitriptyline, nortriptyline, tramadol and O‐desmethyltramadol were determined using a validated assay that was based on a previously published high‐performance liquid chromatography tandem mass spectrometry (HPLC‐MS/MS) method.[34] Details regarding the bioanalytical assays used to measure CBD, amitriptyline, nortriptyline, tramadol and O‐desmethyltramadol are located in the Supplementary Materials section.
R 3.6.1 for Windows (R Foundation for Statistical Computing/R development Core Team, Vienna, Austria, 2019), PKNCA package version 0.9.5, was used to calculate pharmacokinetic parameters. PK parameter calculations were based on actual sampling time.

CYP3A4 and CYP2B6 = details: cited from earlier work
CYP2D6 = details: cited from earlier work
[4] = Visit 2 (Day 8): 30 mg CBD oral 1 h prior to 25 mg amitriptyline + 50 mg tramadol, N=12
[5] = human, in vivo, Geometric mean, Visit 2 (Day 8): 30 mg CBD oral 1 h prior to 25 mg amitriptyline + 50 mg tramadol, N=12
[6] = human, in vivo, Mean, Visit 2 (Day 8): 30 mg CBD oral 1 h prior to 25 mg amitriptyline + 50 mg tramadol, N=12
[7] = human, in vivo, Median, Visit 2 (Day 8): 30 mg CBD oral 1 h prior to 25 mg amitriptyline + 50 mg tramadol, N=12
[8] = Visit 1: without CBD, mixed effects model on log-transformed data
[9] = Visit 2 (with 30 mg CBD) vs Visit 1 (without CBD)
[10] = Visit 2: with 30 mg CBD, mixed effects model on log-transformed data
[11] = Visit 1 (Day 1), no CBD, based on AUClast, corrected for molecular weight ratio, N=13
[12] = Visit 1 (Day 1): 25 mg amitriptyline + 50 mg tramadol oral, no CBD, N=13
[13] = Visit 2 (Day 8), 30 mg CBD 1 h prior, based on AUClast, corrected for molecular weight ratio, N=12
[14] = human, in vivo, Geometric mean, Visit 1 (Day 1): 25 mg amitriptyline + 50 mg tramadol oral, no CBD, N=13
[15] = human, in vivo, Mean, Visit 1 (Day 1): 25 mg amitriptyline + 50 mg tramadol oral, no CBD, N=13
[16] = human, in vivo, Median, Visit 1 (Day 1): 25 mg amitriptyline + 50 mg tramadol oral, no CBD, N=13

Compound: 11‐OH‐THC
- increase of mean AUC by 30 mg CBD ([1]; 30 mg CBD administered 30 min before THC): 71%

Compound: CN(C)CCC=C1c2ccccc2CCc2ccccc21 [Amitriptyline]
- AUC(0-t) (clinical; human, in vivo): 139 ng·h/mL
- Clast, back transformed LSM Visit 1 (clinical; human, in vivo): 3.40
- Cmax (clinical; human, in vivo): 12.3 ng/mL
- AUC(0-t) (clinical; human, in vivo, 30 mg): 156 ng·h/mL
- Cmax (clinical; human, in vivo, 30 mg): 14.5 ng/mL
- terminal half‐life [2]: ~ 25 h
- mean (SD) AUC ([2]; 28 participants dosed with 10 mg of amitriptyline): 156 (87.8) ng*h/mL
- baseline amitriptyline concentration ([3]; human, in vivo): 0.85 ng/mL

Compound: C=C(C)[C@@H]1CCC(C)=C[C@H]1c1c(O)cc(CCCCC)cc1O [Cannabidiol]
- terminal half‐life [2]: ~ 60 h
- Clast, Geometric mean [3, 4]: 1.0 ng/mL
- Clast, Mean [3, 4]: 1.1 ng/mL
- Clast, Median [3, 4]: 1.1 ng/mL
- tlag, Median [3, 4]: 0.0 h
- tmax, Median [3, 4]: 2.0 h
- AUC(0-t) [3, 5]: 5.3 ng·h/mL
- AUC(0-t) [3, 6]: 6.9 ng·h/mL
- AUC(0-t) [3, 7]: 6.2 ng·h/mL
- Cmax [3, 5]: 2.9 ng/mL
- Cmax [3, 6]: 3.5 ng/mL
- Cmax [3, 7]: 3 ng/mL
- mean±SD Cmax ([1]; previous study, 30 mg CBD tablet formulation after semi-standardized light breakfast): 5.6 ± 4.6 ng/mL

Compound: CNCCC=C1c2ccccc2CCc2ccccc21 [Nortriptyline]
- AUC(0-t) (clinical; human, in vivo): 75.3 ng·h/mL
- Clast, back transformed LSM Visit 1 (clinical; human, in vivo): 3.30
- Cmax (clinical; human, in vivo): 4.36 ng/mL
- AUC(0-t) (clinical; human, in vivo, 30 mg): 79.5 ng·h/mL
- Cmax (clinical; human, in vivo, 30 mg): 4.51 ng/mL
- terminal half‐life [2]: ~ 26 h
- MPR (metabolite to parent ratio), Geometric mean ([3]; human, in vivo): 0.57
- MPR (metabolite to parent ratio), Mean ([3]; human, in vivo): 0.62
- MPR (metabolite to parent ratio), Median ([3]; human, in vivo): 0.60

Compound: CN(C)C[C@H]1CCCC[C@]1(O)c1cccc(O)c1 [O‐desmethyltramadol]
- MPR, back transformed LSM Visit 1 (clinical; Visit 1: without CBD, metabolite to parent ratio): 0.37
- AUClast, back transformed LSM Visit 1 (clinical; [8]): 400.41
- Clast, back transformed LSM Visit 1 (clinical; [8]): 4.43
- Cmax, back transformed LSM Visit 1 (clinical; Visit 1: without CBD, mixed effects model on log-transformed data, in ng/mL): 34.99
- AUClast, Ratio of LSMs (clinical; [9]): 0.99
- Clast, Ratio of LSMs (clinical; [9]): 0.91
- Cmax, Ratio of LSMs (clinical; [9]): 1.05
- MPR, Ratio of LSMs (clinical; [9]): 0.95
- MPR, back transformed LSM Visit 2 (clinical; Visit 2: with 30 mg CBD, metabolite to parent ratio): 0.36
- AUClast, back transformed LSM Visit 2 (clinical; [10]): 396.86
- Clast, back transformed LSM Visit 2 (clinical; [10]): 4.04
- Cmax, back transformed LSM Visit 2 (clinical; Visit 2: with 30 mg CBD, mixed effects model on log-transformed data, in ng/mL): 36.84
- terminal half‐life [2]: ~ 7 h
- mean (SD) AUC ([2]; 25 participants dosed with 100 mg tramadol): 669 (181) ng*h/mL
- MPR (metabolite to parent ratio), Geometric mean [3, 11]: 0.37
- MPR (metabolite to parent ratio), Mean [3, 11]: 0.40
- MPR (metabolite to parent ratio), Median [3, 11]: 0.33
- AUClast, Geometric mean [3, 12]: 400.4 ng·h/mL
- AUClast, Mean [3, 12]: 412.0 ng·h/mL
- AUClast, Median [3, 12]: 388.6 ng·h/mL
- Clast, Geometric mean [3, 12]: 4.4 ng/mL
- Clast, Mean [3, 12]: 4.8 ng/mL
- Clast, Median [3, 12]: 4.1 ng/mL
- Cmax, Geometric mean [3, 12]: 35.0 ng/mL
- Cmax, Mean [3, 12]: 36.7 ng/mL
- Cmax, Median [3, 12]: 31.1 ng/mL
- tlag, Median [3, 12]: 0.0 h
- tmax, Median [3, 12]: 3.0 h
- MPR (metabolite to parent ratio), Geometric mean [3, 13]: 0.37
- MPR (metabolite to parent ratio), Mean [3, 13]: 0.39
- MPR (metabolite to parent ratio), Median [3, 13]: 0.32
- AUClast, Geometric mean [3, 4]: 399.5 ng·h/mL
- AUClast, Mean [3, 4]: 411.1 ng·h/mL
- AUClast, Median [3, 4]: 396.1 ng·h/mL
- Clast, Geometric mean [3, 4]: 4.0 ng/mL
- Clast, Mean [3, 4]: 4.4 ng/mL
- Clast, Median [3, 4]: 3.9 ng/mL
- Cmax, Geometric mean [3, 4]: 37.6 ng/mL
- Cmax, Mean [3, 4]: 39.5 ng/mL
- Cmax, Median [3, 4]: 33.6 ng/mL
- tlag, Median [3, 4]: 0.0 h
- tmax, Median [3, 4]: 2.5 h

Compound: COc1cccc(C2(O)CCCCC2CN(C)C)c1 (stereo not drawn) [Tramadol]
- Clast, back transformed LSM Visit 1 (clinical; [8]): 7.41
- AUClast, Ratio of LSMs (clinical; [9]): 1.04
- Clast, Ratio of LSMs (clinical; [9]): 0.97
- Cmax, Ratio of LSMs (clinical; [9]): 1.10
- Clast, back transformed LSM Visit 2 (clinical; [10]): 7.16
- AUC(0-t) (clinical; human, in vivo): 1130 ng·h/mL
- Cmax (clinical; human, in vivo): 137 ng/mL
- AUC(0-t) (clinical; human, in vivo, 30 mg): 1180 ng·h/mL
- Cmax (clinical; human, in vivo, 30 mg): 151 ng/mL
- terminal half‐life [2]: 5 to 6 h
- Clast, Geometric mean [3, 12]: 7.4 ng/mL
- Clast, Mean [3, 12]: 8.9 ng/mL
- Clast, Median [3, 12]: 8.4 ng/mL
- tlag, Median [3, 12]: 0.0 h
- Clast, Geometric mean [3, 4]: 6.8 ng/mL
- Clast, Mean [3, 4]: 8.7 ng/mL
- Clast, Median [3, 4]: 8.0 ng/mL
- tlag, Median [3, 4]: 0.0 h
- AUC(0-t) [3, 14]: 1130 ng·h/mL
- AUC(0-t) [3, 5]: 1150 ng·h/mL
- AUC(0-t) [3, 15]: 1170 ng·h/mL
- AUC(0-t) [3, 6]: 1210 ng·h/mL
- AUC(0-t) [3, 16]: 1240 ng·h/mL
- AUC(0-t) [3, 7]: 1160 ng·h/mL
- Cmax [3, 14]: 137 ng/mL
- Cmax [3, 5]: 150 ng/mL
- Cmax [3, 15]: 141 ng/mL
- Cmax [3, 6]: 153 ng/mL
- Cmax [3, 16]: 135 ng/mL
- Cmax [3, 7]: 155 ng/mL
- proportion of tramadol converted into N‐desmethyltramadol (N‐DSMT) by CYP3A4 and CYP2B6 (CYP3A4 and CYP2B6): approximately 20%
- proportion of tramadol converted into O‐desmethyltramadol (O‐DSMT) by CYP2D6 (CYP2D6): approximately 80%
